Reference: PubChem BioAssay (NCI)
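In this assay, cells in 96-well plates receive the compound at five concentrations for 48 hours. Endpoints are linearly interpolated between the surrounding concentrations. GI50 is the concentration that inhibits growth by half. At the TGI there is no net growth.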

Experiments:
Experiment in all cases: NCI-60 cell line screen, 48 h
SW-620 colon = tested on: SW-620 colon
CAKI-1 renal = tested on: CAKI-1 renal
SF-539 CNS = tested on: SF-539 CNS
A498 renal = tested on: A498 renal
NCI/ADR-RES ovarian = tested on: NCI/ADR-RES ovarian
SK-MEL-5 melanoma = tested on: SK-MEL-5 melanoma
SN12C renal = tested on: SN12C renal
UACC-62 melanoma = tested on: UACC-62 melanoma
K-562 leukemia = tested on: K-562 leukemia
HOP-92 NSCLC = tested on: HOP-92 NSCLC

| SMILES | GI50 (SW-620 colon) [µM] | TGI (SW-620 colon) [µM] | GI50 (CAKI-1 renal) [µM] | TGI (CAKI-1 renal) [µM] | GI50 (SF-539 CNS) [µM] | TGI (SF-539 CNS) [µM] | GI50 (A498 renal) [µM] | TGI (A498 renal) [µM] | GI50 (NCI/ADR-RES ovarian) [µM] | TGI (NCI/ADR-RES ovarian) [µM] | GI50 (SK-MEL-5 melanoma) [µM] | TGI (SK-MEL-5 melanoma) [µM] | GI50 (SN12C renal) [µM] | TGI (SN12C renal) [µM] | GI50 (UACC-62 melanoma) [µM] | TGI (UACC-62 melanoma) [µM] | GI50 (K-562 leukemia) [µM] | TGI (K-562 leukemia) [µM] | TGI (HOP-92 NSCLC) [µM] | GI50 (HOP-92 NSCLC) [µM] |
| --- | --- | --- | --- | --- | --- | --- | --- | --- | --- | --- | --- | --- | --- | --- | --- | --- | --- | --- | --- | --- |
| CCC(C)Nc1ccc(N)cc1 (stereo unspecified) | 4.16 | 15.5 | 16.7 | > 100 | 5.16 | 17.1 | 7.9 | 23.4 | 10.6 | 28 | 2.86 | 9.05 | 2.95 | 12.9 | 2.91 | 12.5 | 2.36 | 10.4 |  |  |
| CCOC(=O)C(=O)CC1=Nc2ccccc2SC(c2cccc(C)c2)C1 (stereo unspecified) |  | 43.4 |  | 54 |  | 35.1 |  | 33 |  |  |  | 36.2 |  | 31.2 |  | 31.9 |  | 57.6 | 32 |  |
| Cc1cccc(C)c1NC(=O)C1=NC(=S)NC(c2ccccc2)C1c1nc2ccccc2s1 (stereo unspecified) |  | > 100 |  | > 100 |  | > 100 |  | > 100 |  |  |  | > 100 |  | > 100 |  | > 100 |  | > 100 | > 100 |  |
| CCOP(=O)(OCC)C1CCCOC1=O (stereo unspecified) |  | > 100 |  | > 100 |  | > 100 |  | > 100 |  |  |  | > 100 |  | > 100 |  | > 100 |  | > 100 |  |  |
| O=[N+]([O-])C=C(c1ccc(Cl)cc1)c1ccc(Cl)cc1 |  | 31 |  | 37.7 |  | 31.5 |  | 36.2 |  |  |  |  |  | 35.6 |  |  |  | 50.2 |  |  |
| C[CH2][Ge]([CH2]C)([CH2]C)[O]C(=O)C(OC(C)=O)c1ccccc1 (stereo unspecified) | > 100 | > 100 | > 100 | > 100 | > 100 | > 100 | > 100 | > 100 |  |  | 71.6 | > 100 | > 100 | > 100 | > 100 | > 100 | > 100 | > 100 | > 100 | 57.9 |
| N#C/C(=C/c1ccc2c(c1)OCO2)C(=O)c1ccccc1 |  | > 100 |  | > 100 |  | > 100 |  | > 100 |  |  |  | > 100 |  | > 100 |  | > 100 |  | > 100 |  |  |
| Cc1cccc(C2SCc3nc4ccccc4n32)c1 (stereo unspecified) |  | > 100 |  | > 100 |  | > 100 |  |  |  |  |  | 28.3 |  | 96.8 |  | > 100 |  | > 100 | 47.9 |  |
| COc1ccc2c(c1)nc(C(=O)c1ccco1)c(C(F)(F)F)[n+]2[O-] | > 100 | > 100 | > 100 | > 100 | > 100 | > 100 | > 100 | > 100 | > 100 | > 100 | > 100 | > 100 | > 100 | > 100 | > 100 | > 100 | > 100 | > 100 |  |  |
| COc1ccc2c3c([nH]c2c1[N+](=O)[O-])C(C)N(Cc1ccccc1)CC3 (stereo unspecified) |  | > 100 |  | > 100 |  | 5.24 |  | 7.71 |  |  |  |  |  | > 100 |  | > 100 |  | > 100 |  |  |
| COc1ccc2c(c1)[nH]c(=O)c1c3cccc(F)c3cn21 | 0.0343 | 25.8 | 0.0137 | 0.04 | 0.0522 | 0.455 | 0.0625 | > 100 | 0.038 | 14.3 | 0.0449 | > 100 | 0.0828 | 24.4 | 0.0379 | > 100 | 0.024 | 12.3 |  |  |
| O=C(/C=C/c1ccccc1F)c1ccc(Cl)c(Cl)c1 |  | > 66.3 |  | > 80.2 |  | > 100 |  | > 59.3 |  |  |  | > 84.1 |  | 98.5 |  | > 100 |  | 48.4 | > 100 |  |
| c1ccc(C2OC3(CCC[C@H]4C[C@H]43)O[C@H]2c2ccccc2)cc1 (stereo partly specified) |  | > 100 |  | 74.7 |  | > 100 |  | > 100 |  |  |  | 65.7 |  | > 100 |  | > 100 |  | > 100 | 66.2 |  |
| CCc1cccc(C)c1NC(=O)C(=O)CC(=O)c1ccc(Cl)s1 |  | > 100 |  | > 100 |  | > 100 |  | > 100 |  |  |  |  |  | > 100 |  | > 100 |  | > 100 | > 100 |  |
| CC1/C(=N\O)CC(c2ccccc2)N(C)C1c1ccccc1 (stereo unspecified) |  | > 100 |  | > 100 |  | > 100 |  | > 100 |  |  |  | > 100 |  | > 100 |  | > 100 |  | > 100 | > 100 |  |
| O=C1C=CC=C/C1=C1/SC(c2ccccc2)=C(O)N1c1ccccc1 |  | > 100 |  | > 100 |  | > 100 |  |  |  |  |  | > 100 |  | > 100 |  | > 100 |  |  | > 100 |  |
| COc1cc(/C=N/Nc2ncnc3c2cnn3-c2ccccc2)ccc1O | 11.1 | > 25 | 2.52 | > 25 | 8.84 | > 25 | > 25 | > 25 | > 20.9 | > 25 | 12.6 | > 25 | > 25 | > 25 | 15.6 | > 25 | 2.85 | > 25 |  |  |
| CN(C)C(=N/O)/C(=N\O)N(C)C |  | > 100 |  | > 100 |  | > 100 |  | > 100 |  |  |  |  |  | > 100 |  | > 100 |  | > 100 | > 100 |  |
| CN(c1ccc(C(=O)c2ccc(N(C)S(C)(=O)=O)cc2)cc1)S(C)(=O)=O |  | > 100 |  | > 100 |  |  |  | > 100 |  |  |  | 78.4 |  | > 100 |  | > 100 |  | > 100 | > 100 |  |
| CC1=C(C(=O)Nc2ccccc2)C(c2cccc3ccccc23)C(C(=O)Nc2ccccc2)=C(C)N1 |  | 55.1 |  | 38.2 |  | 37.9 |  | 48.5 |  |  |  | 33.4 |  | 33.3 |  | 27.8 |  | 72.5 | 58.8 |  |
| O=C1N2Cc3c4ccc5c3CN3C(=O)N6Cc7c(ccc(c7CN1C6(c1ccccc1)C23c1ccccc1)OCCOCCNCCOCCO4)OCCOCCNCCOCCO5 (stereo unspecified) |  | 50.8 |  | > 100 |  | > 100 |  | > 100 |  |  |  | > 100 |  | 89.1 |  | > 100 |  | > 100 | 57.4 |  |
